Measured values: publication PMC12790360, “Characterization of Non‐Specific Electrostatic Interactions of Cationic Peptides with DNA Origami and Their Functional Consequences” (Small Methods, 2025)
Ends that are not written are not given here. Peptide text beside a SMILES is read from it.

The molecules below were run on ssDNA (assay: Centrifugation-based pull-down (solubility) assay). Conditions: not given.
Type: physicochemical
Experimental: Next, to quantify the propensity of these peptides to induce the aggregation, we developed a centrifugation‐based pull‐down assay (Figure 1e). In this assay, the cationic peptide pulls down the interacting BCN‐free ssDNA, forming large macromolecular aggregates that are sedimented as a pellet. The amount of ssDNA remaining in the soluble supernatant is then determined by measuring its absorbance at 260 nm.^[ [40], [41] ^] […] The soluble fraction for both peptides increased as the NaCl concentration was raised, confirming that the aggregation is driven by electrostatic interactions. […] To determine the soluble fraction of ssDNA after mixing with peptides, the mixtures were prepared as described above and then centrifuged at 16 000 × g for 5 min at room temperature. The supernatants were carefully collected, and the ssDNA concentration was measured by absorbance at 260 nm (OD260) on a NanoDrop spectrophotometer. The soluble fraction was calculated as OD260,supernatant/OD260,initial, where OD260,initial corresponds to the absorbance of the ssDNA reference solution (0.07 mM in 1× TE buffer without peptide or salt).
In the case of EQLESIINFEKLTEWT [AP2], the “Soluble ssDNA fraction in supernatant after centrifugation with peptide” value (shortened to “Soluble ssDNA fraction in supernatant”) is reported as “highly soluble across all conditions”. ISQAVHAAHAEINEAGR [AP3] was tested, and the “Soluble ssDNA fraction in supernatant” value was “weaker aggregation tendencies compared with CP1 and CP2”.

Same assay, conditions: BCN-free ssDNA 0.07 mM in 1x TE, tenfold molar excess peptide, varying NaCl, 16 000 x g 5 min room temperature, OD260 supernatant/initial, n = 3
In the case of KLTWQELYQLKYKGI [CP6], the “Soluble ssDNA fraction in supernatant” value is reported as “weaker aggregation tendencies compared with CP1 and CP2”. `CC[C@H](C)[C@H](NC(=O)[C@H](CCCCN)NC(=O)[C@H](CCC(N)=O)NC(=O)[C@H](CC(N)=O)NC(=O)[C@H](CS)NC(=O)[C@H](C)NC(=O)[C@H](C)NC(=O)CNC(=O)[C@H](CCCNC(=N)N)NC(=O)[C@H](Cc1c[nH]c2ccccc12)NC(=O)CNC(=O)[C@@H]1CCCN1C(=O)[C@H](CCCNC(=N)N)NC(=O)[C@@H](N)CS)C(=O)N[C@@H](CC(C)C)C(=O)O` [CP4] (H-CRPGWRGAACNQKIL-OH) was tested, and the “Soluble ssDNA fraction in supernatant” value was “highly soluble across all conditions”. YRSRKYSSWYVALKR [CP1] was tested, and the “Soluble ssDNA fraction in supernatant” value was “salt‐dependent solubility”. For SSSHPIFHRGEFSV [NP5], the “Soluble ssDNA fraction in supernatant” value was “weaker aggregation tendencies compared with CP1 and CP2”. With RGIDKRHWNSQ [CP3] the “Soluble ssDNA fraction in supernatant” value was “weaker aggregation tendencies compared with CP1 and CP2”. In the case of “PKKKR [CP5, brain-derived neurotrophic factor (BDNF) mimic peptide, cyclic, cationic, net charge +3]”, the “Soluble ssDNA fraction in supernatant” value is reported as “weaker aggregation tendencies compared with CP1 and CP2”. With `CC[C@H](C)[C@H](NC(=O)[C@@H](NC(=O)[C@H](CC(C)C)NC(=O)[C@H](CO)NC(=O)[C@H](Cc1c[nH]cn1)NC(=O)[C@@H](NC(=O)[C@@H](NC(=O)CNC(=O)[C@H](Cc1c[nH]cn1)NC(=O)[C@H](CCCNC(=N)N)NC(=O)[C@H](CCCNC(=N)N)NC(=O)[C@H](CCSC)NC(=O)[C@H](CCC(=O)O)NC(=O)[C@H](Cc1ccc(O)cc1)NC(=O)[C@H](CCCCN)NC(=O)[C@H](CC(N)=O)NC(=O)CNC(=O)[C@@H]1CCCN1C(=O)[C@H](CS)NC(=O)[C@H](CC(C)C)NC(=O)[C@H](CCC(=O)O)NC(=O)[C@@H](NC(=O)CNC(=O)[C@H](CCC(=O)O)NC(=O)[C@@H](N)CCCNC(=N)N)C(C)C)[C@@H](C)O)[C@@H](C)O)C(C)C)C(=O)N[C@@H](Cc1c[nH]cn1)C(=O)N[C@@H](CC(=O)O)C(=O)O` [NP1] the “Soluble ssDNA fraction in supernatant” value was “weaker aggregation tendencies compared with CP1 and CP2”. GGGSEEEYRSRKYSSWYVALKR [CP2] was tested, and the “Soluble ssDNA fraction in supernatant” value was “salt‐dependent solubility”.
